Source: PMC5669819 (Molecular cancer therapeutics, 2017)

Tests used:
MEK1 = MEK1 (Homo sapiens, UniProt Q02750); assay type: biochemical
PI3Kα = PI3Kα (Homo sapiens, UniProt P42336); assay: Adapta TR-FRET lipid kinase assay with purified enzyme; assay type: biochemical
Sequence of PI3Kα (P42336 whole entry): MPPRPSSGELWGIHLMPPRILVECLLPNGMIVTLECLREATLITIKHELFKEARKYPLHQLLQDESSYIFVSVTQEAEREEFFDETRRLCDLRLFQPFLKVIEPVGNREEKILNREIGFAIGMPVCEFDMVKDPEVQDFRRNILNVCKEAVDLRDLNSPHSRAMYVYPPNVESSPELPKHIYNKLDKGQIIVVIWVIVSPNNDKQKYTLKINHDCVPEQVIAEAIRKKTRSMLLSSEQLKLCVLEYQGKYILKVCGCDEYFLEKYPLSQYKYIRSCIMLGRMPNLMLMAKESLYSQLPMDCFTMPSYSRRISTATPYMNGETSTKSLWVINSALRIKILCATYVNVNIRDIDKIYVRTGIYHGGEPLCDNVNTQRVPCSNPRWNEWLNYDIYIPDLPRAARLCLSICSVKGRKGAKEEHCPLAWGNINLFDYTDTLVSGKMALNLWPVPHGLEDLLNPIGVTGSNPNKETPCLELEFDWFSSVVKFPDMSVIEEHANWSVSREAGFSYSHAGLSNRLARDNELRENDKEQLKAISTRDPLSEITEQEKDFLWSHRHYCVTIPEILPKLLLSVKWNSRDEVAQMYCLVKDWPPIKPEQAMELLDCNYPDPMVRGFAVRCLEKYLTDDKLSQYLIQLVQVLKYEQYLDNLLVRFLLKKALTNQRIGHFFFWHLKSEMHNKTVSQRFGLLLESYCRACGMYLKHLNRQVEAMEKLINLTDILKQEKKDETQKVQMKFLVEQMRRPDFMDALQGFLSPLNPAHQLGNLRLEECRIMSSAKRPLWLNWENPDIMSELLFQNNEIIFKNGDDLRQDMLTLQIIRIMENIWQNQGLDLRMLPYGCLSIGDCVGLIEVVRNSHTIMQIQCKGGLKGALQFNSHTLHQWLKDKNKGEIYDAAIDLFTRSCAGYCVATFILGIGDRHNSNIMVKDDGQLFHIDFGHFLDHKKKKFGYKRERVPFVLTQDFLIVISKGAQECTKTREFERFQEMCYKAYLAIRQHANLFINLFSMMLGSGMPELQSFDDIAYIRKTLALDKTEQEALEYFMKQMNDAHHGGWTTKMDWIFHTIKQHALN
Sequence of PI3Kα (P27986 2-724 partner): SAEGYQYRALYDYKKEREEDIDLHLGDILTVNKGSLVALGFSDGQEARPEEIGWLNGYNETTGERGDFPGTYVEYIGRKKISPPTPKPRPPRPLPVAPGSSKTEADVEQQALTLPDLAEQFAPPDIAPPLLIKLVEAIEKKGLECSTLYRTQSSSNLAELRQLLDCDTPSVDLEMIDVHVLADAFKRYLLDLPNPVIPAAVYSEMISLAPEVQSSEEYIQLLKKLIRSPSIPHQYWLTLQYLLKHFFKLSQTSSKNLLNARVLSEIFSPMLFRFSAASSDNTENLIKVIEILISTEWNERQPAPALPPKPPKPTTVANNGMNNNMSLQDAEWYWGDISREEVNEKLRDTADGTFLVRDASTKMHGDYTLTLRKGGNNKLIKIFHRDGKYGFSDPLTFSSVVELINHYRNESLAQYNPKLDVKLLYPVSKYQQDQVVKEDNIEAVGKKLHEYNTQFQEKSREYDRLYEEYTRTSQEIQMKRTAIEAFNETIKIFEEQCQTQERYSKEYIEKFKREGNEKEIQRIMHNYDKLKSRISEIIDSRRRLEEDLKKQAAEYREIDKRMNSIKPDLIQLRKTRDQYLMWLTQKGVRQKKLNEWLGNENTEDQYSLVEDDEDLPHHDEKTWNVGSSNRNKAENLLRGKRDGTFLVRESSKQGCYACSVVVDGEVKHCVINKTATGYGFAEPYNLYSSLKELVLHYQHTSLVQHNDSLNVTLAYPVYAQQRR

Sequence of MEK1 (Q02750 whole entry): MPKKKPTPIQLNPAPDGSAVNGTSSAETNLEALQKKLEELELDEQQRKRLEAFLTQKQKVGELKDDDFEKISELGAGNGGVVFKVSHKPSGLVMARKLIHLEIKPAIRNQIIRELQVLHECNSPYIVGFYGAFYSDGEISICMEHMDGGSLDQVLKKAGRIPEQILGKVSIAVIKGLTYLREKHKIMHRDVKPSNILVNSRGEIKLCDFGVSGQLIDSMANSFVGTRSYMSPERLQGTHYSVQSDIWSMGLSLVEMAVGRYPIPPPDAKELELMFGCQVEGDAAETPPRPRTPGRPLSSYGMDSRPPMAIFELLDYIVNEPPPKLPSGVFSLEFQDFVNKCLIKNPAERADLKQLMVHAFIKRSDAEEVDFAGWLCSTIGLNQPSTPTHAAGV

Q: Which results are given for O=C(NOCCOCCOCCOCCN1CCN(c2nc(N3CCOCC3)nc(-n3c(C(F)F)nc4ccccc43)n2)CC1)c1ccc(F)c(F)c1Nc1ccc(I)cc1F [ST-162]?
A: IC50 (MEK1): 398 nM; IC50 (PI3Kα): 191 nM
